US5041426A, “Immune system enhancing 3-β-d-ribofuranosylthiazolo[4,5-d]pyridimine nucleosides and nucleotides” (priority 1988, dated 1991)
Several values for one entry are separate records, joined by “and”; a condition that tells them apart may be missing. Identical values can stand only once. Like-named read-outs stand apart in the source and are kept apart here.

Tests used:
K562 tumor cells = assay: In vitro augmentation of human natural killer cell activity (PBMNC, 51Cr release); assay type: cell-based; settings: Table 22
Experimental: The natural killer cell activity in human cells was also measured. In conducting these tests peripheral blood mononuculear cells (PBMNC) were isolated on Ficoll-Hypaque gradient, washed three times in Hanks and re-suspended in RPMI-1640 containing 10% human AB serum as described in Rosenberg, S. A.: Journal American Medical Association, 256:3117, 1986 and the above referred to reference to Djeu, et al. Peripheral blood mononuclear cells (PBMNC) from eleven different donors were treated with compound 7 as described in Djeu, et al. as well as Sharma, B., Odom, L. F.: Cancer Immunol. Immunother. 7.93, 1979, and Sharma, B., Odom, L. F.: Cancer Research 44:3258, 1984.
The PBMNC cells were incubated with compound 7 at 37° C. for 20 to 68 hours in a 5% CO2 humid atmosphere and after incubation the cytotoxicity was determined against K562 tumor cells.
^a Peripheral blood mononuclear cells were treated with 0.05 - 0.4 mM
concentration of compound 7 in RPM11640 containing 10% human AB serum for
20 to 68 hours. After the treatment, effector cells were tested against
K562 target cells in 4 hour ^51 Cr release assay as described in
Sharma et al. above. The data shown here represent the maximum response.
K562 target cells in 4 hour ^51 Cr release assay as previously
described above in Sharma et al. The data represent the maximum response.
Other Nucleosides and Nucleotides of the invention were tested for their activity in human natural killer cells […] as per example 33 above.

YAC-1 cells [1] = assay: In vitro potentiation of murine natural killer cell activity (mouse spleen cells, 51Cr release); assay type: cell-based
Experimental: After incubation the cytotoxicity of the treated and untreated cells was determined against YAC-1 cells.
^a Spleen cells from mice were treated with 0.05 mM concentration of
amino acids and 5 × 10^-5 M Mercaptoethanol. The effector cells
were then tested for their cytotoxic activity against YAC1 target cells i
4 hr ^51 Cr release assay.
^a Spleen cells from mice were incubated in the absence and presence
of various compounds. After incubation, cells were suspended in complete
medium and then their cytotoxic activity was determined against YAC1
target cells as described in the text

YAC-1 cells [2] = assay: as above; assay type: cell-based; settings: Table 21; 0.5 mM
Influenza B Virus = assay: Antiviral activity against Influenza B virus infection in mice; assay type: in vivo, mouse
Experimental: Compound 7 was tested therapeutically against Influenza B Virus Infection in Mice. In addition to a saline control Ribavirin, a known antiviral, was utilized for test purposes.
hours previrus inoculation.
^c p < .001 twotailed ttest.

San Angelo Virus [3] = assay type: in vivo, mouse; settings: 200 mg/kg/day; half-daily doses twice a day for 7 days; Time (21 days)
San Angelo Virus [4] = assay type: in vivo, mouse; settings: saline at -24 h, of mice that died
Banzi Virus = assay type: in vivo, mouse; settings: placebo at -24 h, of mice that died

With O=c1[nH]c(=O)c2sc(=O)n([C@@H]3O[C@H](CO)[C@@H](O)[C@H]3O)c2[nH]1 [Compound 8, 3-β-D-Ribofuranosylthiazolo[4,5-d]pyrimidine-2,5,7(4H,6H)-trione] the “% Natural Killer Cell Cytotoxicity” value (K562 tumor cells; 0.2 mM) was 5%.

For O=C(OC[C@H]1O[C@@H](n2c(=O)sc3c(=O)[nH]cnc32)[C@H](OC(=O)c2ccccc2)[C@@H]1OC(=O)c1ccccc1)c1ccccc1 [Compound 9, 3-(2,3,5-Tri-O-benzoyl-β-D-Ribofuranosyl)thiazolo[4,5-d] pyrimidine-2,7(6H)-dione], the “% Natural Killer Cell Cytotoxicity” value (K562 tumor cells; 0.05 mM) was 6%, the “% Natural Killer Cell Cytotoxicity” value (K562 tumor cells; 0.2 mM) was 43% and the “% Natural Killer Cell Cytotoxicity” value (YAC-1 cells [1]; Table 21, 0.05 mM) was 3% and 2% and 0.31%. The “% Natural Killer Cell Cytotoxicity” value (YAC-1 cells [2]) was 13% and 6.5%.

In the case of Nc1nc2c(sc(=O)n2[C@@H]2O[C@@H]3COP(=O)(O)O[C@H]3[C@H]2O)c(=O)[nH]1 [Compound 12], the “% Natural Killer Cell Cytotoxicity” value (K562 tumor cells; 0.2 mM) is reported as 43% and the “% Natural Killer Cell Cytotoxicity” value (K562 tumor cells; 0.4 mM, Monophosphate Ammonium Salt) is reported as 39% and 22%.

Nc1nc2c(sc(=S)n2[C@@H]2O[C@H](CO)[C@@H](O)[C@H]2O)c(=O)[nH]1 [Compound 16, 5-Amino-2-thioxo-3-β -D-ribofuranosylthiazolo[4,5-d]pyrimidin-7(6H)-one] was tested, and the “% Natural Killer Cell Cytotoxicity” value (YAC-1 cells [2]) was 38%.

In the case of Nc1nc2c(sc(=O)n2[C@@H]2O[C@H](CO)[C@@H](O)[C@H]2O)c(=S)[nH]1 [Compound 19, 5-Amino-7(6H)-thioxo-3-β-D-ribofuranoxylthiazolo[4,5-d]pyrimidin-2-one], the “% Natural Killer Cell Cytotoxicity” value (K562 tumor cells; 0.2 mM) is reported as 7%.

With NC(=O)c1ncn([C@@H]2O[C@H](CO)[C@@H](O)[C@H]2O)n1 [Ribavirin] the “Mean Survival Time” value (Influenza B Virus; 100 mg/kg/day, half-daily doses twice a day for 7 days) was 8.0 ± 0.0 days, the “efficacy against influenza B (in words)” value (Influenza B Virus; Table 12) was “significant antiviral activity” and the “Mean Survival Time” value (San Angelo Virus [3]) was 12.3 ± 2.9 days. The “Mean Survival Time” value (San Angelo Virus [4]; Ribavirin 25 mg/kg/day days 0-6) was 8.1 ± 0.7 days, the “Mean Survival Time” value (San Angelo Virus [4]; Ribavirin 50 mg/kg/day days 0-6) was 9.0 ± 1.2 days and the “Mean Survival Time” value (Banzi Virus; Ribavirin 100 mg/kg days 0-6) was 8.5 ± 1.0 days. For the same molecule, the “Mean Survival Time” value (Banzi Virus; Ribavirin 200 mg/kg days 0-6) was 9.1 ± 0.8 days.

Poly I:C [reference compound] was tested, and the “% Natural Killer Cell Cytotoxicity” value (YAC-1 cells [1]; C57BL/6J spleen cells, treatment 0 h, compound 7 at 0.05 mM) was 18%, the “% Natural Killer Cell Cytotoxicity” value (YAC-1 cells [1]; C57BL/6J spleen cells, treatment 0 h, compound 7 at 0.05 mM, listed as Poly I:) was 22% and the “% Natural Killer Cell Cytotoxicity” value (YAC-1 cells [1]; C57BL/6J spleen cells, treatment 20 h, compound 7 at 0.05 mM) was 13%. For the same molecule, the “% Natural Killer Cell Cytotoxicity” value (YAC-1 cells [1]; C57BL/6J spleen cells, treatment 20 h, compound 7 at 0.05 mM, listed as Poly I:) was 6%, the “% Natural Killer Cell Cytotoxicity” value (YAC-1 cells [1]; C57BL/6J spleen cells, treatment 44 h, compound 7 at 0.05 mM) was 14% and the “% Natural Killer Cell Cytotoxicity” value (YAC-1 cells [1]; C57BL/6J spleen cells, treatment 44 h, compound 7 at 0.05 mM, listed as Poly I:) was 13%. The “% Natural Killer Cell Cytotoxicity” value (YAC-1 cells [1]; CBA/CaJ spleen cells, treatment 0 h, compound 7 at 0.05 mM) was 14.5% and 22%, the “% Natural Killer Cell Cytotoxicity” value (YAC-1 cells [1]; CBA/CaJ spleen cells, treatment 20 h, compound 7 at 0.05 mM) was 18% and 31% and the “% Natural Killer Cell Cytotoxicity” value (YAC-1 cells [1]; CBA/CaJ spleen cells, treatment 44 h, compound 7 at 0.05 mM) was 19% and 9%.
